In US10273228B2, “Hepatitis B viral assembly effectors” (Indiana University Research and Technology Corporation, priority 2015, dated 2019):

What was measured:
[1] = system: HBV viral load, AD38 cells; assay: Activity of test compounds on viral production from AD38 cells (viral load by quantitative PCR of the core sequence in supernatant); format: cell-based, Hepatitis B virus; details: 10 μM compound, 6 days at 37° C., vs DMSO control wells, Table 9; for activity at 10 µM: Hepatitis B virus, 144 h, read-out: AD38 Viral Load (CpAM/DMSO %) at 10 μM
Procedure, shortened: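 Cells seeded at 50,000/well on collagen-coated plates and exposed for 6 days at 37 °C to compound at 1, 3 or 10 μM final (1.0% DMSO). Supernatant viral DNA measured by TaqMan qPCR of the core sequence against known standards, compared with DMSO control wells.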

AD38 cells = assay: AD38 viability normalized to DMSO control; format: cell-based; details: 10 μM compound, vs DMSO control; Table 9
Method: AD38 cells were then re-suspended with 10 mL of treatment medium and counted. Wells of a collagen coated 96-well NUNC microtiter plate were seeded at 50,000/well in 180 μL of treatment medium, and 20 μL of either 10% DMSO (Control) or a 10× solution of test compound in 10% DMSO in treatment media was added for a final compound concentration 1, 3, or 10 μM (1.0% final [DMSO]) and plates were incubated for 6 days at 37° C.

Row | SMILES | activity at 10 µM [1] [%] | AD38 Viability Normalized Result (CPAM/DMSO %) at 10 μM (AD38 cells) [%] | AD38 Viral Load (CpAM/DMSO %) at 10 μM [1] [%]
1 | Cc1ccc(S(=O)(=O)N2CCN(c3nc(Nc4ccc(C#N)cc4)cc(-c4cncs4)n3)CC2)cc1 [Compound 1379] | 6 | 110 | 
2 | N#Cc1ccc(Nc2cc(-c3cncs3)nc(N3CCN(S(=O)(=O)c4ccc(F)cc4)CC3)n2)cc1 [Compound 1380] | 10 | 108 | 
3 | Cc1cc(Nc2ccc(F)cc2)nc(N2CCN(S(=O)(=O)c3ccc(C(=O)O)cc3)CC2)n1 [Compound 1381, 4-((4-(4-((4-fluorophenyl)amino)-6-methylpyrimidin-2-yl)piperazin-1-yl)sulfonyl) benzoic acid] | 46 | 107 | 
4 | COC(=O)c1ccc(S(=O)(=O)N2CCN(c3nc(C)cc(Nc4ccc(F)cc4)n3)CC2)cc1 [Compound 1382, methyl 4-((4-(4-((4-fluorophenyl)amino)-6-methylpyrimidin-2-yl)piperazin-1-yl)sulfonyl) benzoate] | 34 | 107 | 
5 | Cc1cc(Nc2ccc(F)cc2)nc(N2CCN(S(=O)(=O)c3ccc(OCCN4CCOCC4)cc3)CC2)n1 [Compound 1383, N-(4-fluorophenyl)-6-methyl-2-(4-((4-(2-morpholinoethoxy)phenyl)sulfonyl)piperazin-1-yl) pyrimidin-4-amine] | 14 | 94 | 
6 | Cc1cc(Nc2ccc(F)cc2)nc(N2CCN(S(=O)(=O)c3ccc(OCC(=O)O)cc3)CC2)n1 [Compound 1384, 2-(4-((4-(4-((4-fluorophenyl)amino)-6-methylpyrimidin-2-yl)piperazin-1-yl)sulfonyl)phenoxy) acetic acid] | 122 | 91 | 
7 | CCOC(=O)COc1ccc(S(=O)(=O)N2CCN(c3nc(C)cc(Nc4ccc(F)cc4)n3)CC2)cc1 [Compound 1385, ethyl 2-(4-((4-(4-((4-fluorophenyl)amino)-6-methylpyrimidin-2-yl)piperazin-1-yl)sulfonyl)phenoxy) acetate] | 105 | 94 | 
8 | COC(=O)c1ccc(S(=O)(=O)N2CCN(c3nc(Nc4ccc(F)cc4)cc(C(F)(F)F)n3)CC2)cc1 [Compound 1386] | 23 | 118 | 
9 | COC(=O)CCCOc1ccc(S(=O)(=O)N2CCN(c3nc(C)cc(Nc4ccc(F)cc4)n3)CC2)cc1 [Compound 1387, methyl 4-(4-((4-(4-((4-fluorophenyl)amino)-6-methylpyrimidin-2-yl)piperazin-1-yl)sulfonyl)phenoxy) butanoate] | 19 | 107 | 
10 | O=C(O)c1ccc(S(=O)(=O)N2CCN(c3nc(Nc4ccc(F)cc4)cc(C(F)(F)F)n3)CC2)cc1 [Compound 1388, 4-((4-(4-((4-fluorophenyl)amino)-6-(trifluoromethyl)pyrimidin-2-yl)piperazin-1-yl)sulfonyl) benzoic acid] | 15 | 106 | 
11 | CN(C)CCOc1ccc(S(=O)(=O)N2CCN(c3nc(Nc4ccc(F)cc4)cc(C(F)(F)F)n3)CC2)cc1 [Compound 1389, 2-(4-((4-(2-(dimethylamino)ethoxy)phenyl)sulfonyl)piperazin-1-yl)-N-(4-fluorophenyl)-6-(trifluoromethyl) pyrimidin-4-amine] | 2 | 0 | 
12 | O=S(=O)(c1ccc(OCCN2CCOCC2)cc1)N1CCN(c2nc(Nc3ccc(F)cc3)cc(C(F)(F)F)n2)CC1 [Compound 1390, N-(4-fluorophenyl)-2-(4-((4-(2-morpholinoethoxy)phenyl)sulfonyl)piperazin-1-yl)-6-(trifluoromethyl) pyrimidin-4-amine] | 1 | 104 | 
13 | O=S(=O)(c1ccc(C(F)(F)F)cc1)N1CCN(c2nc(Nc3ccc(F)cc3)cc(C(F)(F)F)n2)CC1 [Compound 1391] | 16 | 88 | 
14 | Cc1cc(Nc2ccc(F)cc2)nc(N2CCN(S(=O)(=O)c3ccc(CC(=O)O)cc3)CC2)n1 [Compound 1392, 2-(4-((4-(4-((4-fluorophenyl)amino)-6-methylpyrimidin-2-yl)piperazin-1-yl)sulfonyl)phenyl) acetic acid] | 69 | 99 | 
15 | COC(=O)Cc1ccc(S(=O)(=O)N2CCN(c3nc(C)cc(Nc4ccc(F)cc4)n3)CC2)cc1 [Compound 1393, methyl 2-(4-((4-(4-((4-fluorophenyl)amino)-6-methylpyrimidin-2-yl)piperazin-1-yl)sulfonyl)phenyl) acetate] |  | 102 | 79
16 | Cc1cc(Nc2ccc(F)cc2)nc(N2CCN(S(=O)(=O)c3ccc(OCCCC(=O)O)cc3)CC2)n1 [Compound 1394, 4-(4-((4-(4-((4-fluorophenyl)amino)-6-methylpyrimidin-2-yl)piperazin-1-yl)sulfonyl)phenoxy) butanoic acid] | 32 | 79 | 
17 | Cc1cc(Nc2ccc(F)cc2)nc(N2CCN(S(=O)(=O)c3ccc(O[C@H](C)C(=O)O)cc3)CC2)n1 [Compound 1395, (R)-2-(4-((4-(4-((4-fluorophenyl)amino)-6-methylpyrimidin-2-yl)piperazin-1-yl)sulfonyl)phenoxy) propanoic acid] | 42 | 98 | 
18 | Cc1cc(Nc2ccc(F)cc2)nc(N2CCN(S(=O)(=O)c3ccc(O[C@@H](C)C(=O)O)cc3)CC2)n1 [Compound 1396, (S)-2-(4-((4-(4-((4-fluorophenyl)amino)-6-methylpyrimidin-2-yl)piperazin-1-yl)sulfonyl)phenoxy) propanoic acid] | 70 | 100 | 
19 | COC(=O)CCCOc1ccc(S(=O)(=O)N2CCN(c3nc(Nc4ccc(F)cc4)cc(C(F)(F)F)n3)CC2)cc1 [Compound 1397, methyl 4-(4-((4-(4-((4-fluorophenyl)amino)-6-(trifluoromethyl)pyrimidin-2-yl)piperazin-1-yl)sulfonyl)phenoxy) butanoate] |  | 33 | 5
20 | O=C(O)CCCOc1ccc(S(=O)(=O)N2CCN(c3nc(Nc4ccc(F)cc4)cc(C(F)(F)F)n3)CC2)cc1 [Compound 1398, 4-(4-((4-(4-((4-fluorophenyl)amino)-6-(trifluoromethyl)pyrimidin-2-yl)piperazin-1-yl)sulfonyl)phenoxy) butanoic acid] | 4 | 0 | 
21 | O=C(O)COc1ccc(S(=O)(=O)N2CCN(c3nc(Nc4ccc(F)cc4)cc(C(F)(F)F)n3)CC2)cc1 [Compound 1399, 2-(4-((4-(4-((4-fluorophenyl)amino)-6-(trifluoromethyl)pyrimidin-2-yl)piperazin-1-yl)sulfonyl)phenoxy) acetic acid] | 43 | 93 | 
22 | CCCOc1ccc(S(=O)(=O)N2CCN(c3nc(Nc4ccc(F)cc4)cc(C(F)(F)F)n3)CC2)cc1 [Compound 1400] | 73 | 93 | 
23 | CCCCCOc1ccc(S(=O)(=O)N2CCN(c3nc(Nc4ccc(F)cc4)cc(C(F)(F)F)n3)CC2)cc1 [Compound 1401] | 42 | 97 | 
24 | COCCOCCOc1ccc(S(=O)(=O)N2CCN(c3nc(Nc4ccc(F)cc4)cc(C(F)(F)F)n3)CC2)cc1 [Compound 1402] | 12 | 97 | 
25 | Cc1cc(Nc2ccc(F)cc2)nc(N2CCN(S(=O)(=O)c3ccc(OC(C)(C)C(=O)O)cc3)CC2)n1 [Compound 1403, 2-(4-((4-(4-((4-fluorophenyl)amino)-6-methylpyrimidin-2-yl)piperazin-1-yl)sulfonyl)phenoxy)-2-methylpropanoic acid] | 83 | 100 | 
26 | CCOC(=O)C(C)(C)Oc1ccc(S(=O)(=O)N2CCN(c3nc(C)cc(Nc4ccc(F)cc4)n3)CC2)cc1 [Compound 1404, ethyl 2-(4-((4-(4-((4-fluorophenyl)amino)-6-methylpyrimidin-2-yl)piperazin-1-yl)sulfonyl)phenoxy)-2-methylpropanoate] | 90 | 96 | 
27 | CC(C)(Oc1ccc(S(=O)(=O)N2CCN(c3nc(Nc4ccc(F)cc4)cc(C(F)(F)F)n3)CC2)cc1)C(=O)O [Compound 1405, 2-(4-((4-(4-((4-fluorophenyl)amino)-6-(trifluoromethyl)pyrimidin-2-yl)piperazin-1-yl)sulfonyl)phenoxy)-2-methylpropanoic acid] | 28 | 84 | 
28 | CCOC(=O)C(C)(C)Oc1ccc(S(=O)(=O)N2CCN(c3nc(Nc4ccc(F)cc4)cc(C(F)(F)F)n3)CC2)cc1 [Compound 1406, ethyl 2-(4-((4-(4-((4-fluorophenyl)amino)-6-(trifluoromethyl)pyrimidin-2-yl)piperazin-1-yl)sulfonyl)phenoxy)-2-methylpropanoate] | 63 | 98 | 
29 | COCCOc1ccc(S(=O)(=O)N2CCN(c3nc(Nc4ccc(F)cc4)cc(C(F)(F)F)n3)CC2)cc1 [Compound 1407] | 12 | 91 | 
